Data published in patent US20040204481A1, “Activation of natural killer cells by adenosine A3 receptor agonists” (priority 2001, published 2004).
“Also recorded” adds a separate entry of the source.

What was measured:
[1] = tested on: human peripheral blood NK cells; assay: 4 h 51Cr-release NK cytotoxicity assay, in vitro preincubation with agonist, K562 leukemia cells as targets; format: cell-based; conditions: for activity of natural killer cells following preincubation: 10 nM Cl-IB-MECA, 18 hours preincubation, K562 targets, E:T ratio 1:50, FIG. 1
Protocol: Murine splenocytes were derived from spleens of ICR mice and human mononuclear cells were separated by Ficoll-Hypaque gradient from heparinized blood of healthy normal volunteers.
(§1) The effect of Cl-IB-MECA on the activity of human peripheral blood NK cells was assayed by a standard 4 h ^51Cr-release assay using K562 leukemia cells as targets. Splenocytes or human mononuclear cells were cultured at a concentration of 5×10^5 cells/well in 96 well round bottom plates, and used as the effector (E) cells. The cells were preincubated with 10 nM Cl-IB-MECA for 18 hours, then the agonist was washed out from the wells and the cells were re-suspended in RPMI containing 5% FCS. K562 cells were used as the targets (T) and were labeled with 100 μci of Na2[^51Cr]O4 at 37° C., for 1 hr.
(§2) After extensive washing to remove the excess ^51Cr, target cells (1×10^4) were re-suspended in RPMI and mixed with the effector cells at an E:T ratio of 1:50 in a total volume of 200 μl (triplicate assays). After 4 hours of incubation at 37° C. in 5% CO2, plates were centrifuged, and the supernatants were counted in a gamma counter (LKB).
(§3) NK cytotoxicity was calculated using the following equation (CPM: counts per minute): [formula]
(§4) CPM sample, CPM spontaneous and CPM maximal were determined by measuring the CPM of the supernatants of the target cells in the presence of […], the assay medium or in the presence of 1% triton, respectively. It should be noted that spontaneous release was below 10% of the maximal release throughout this experiment.

murine NK cells = assay: NK activity (51Cr assay) of splenocytes from ICR mice after oral administration; format: in vivo; conditions: FIG. 2; for NK activity of splenocytes derived from treated mice: 6 μg/kg orally for two consecutive days
Protocol: as §1, §2, §3, §4
ICR mice were orally administered for two consecutive days with 6 μg/kg body weight of Cl-IB-MECA. After 4, 11 and 18 days, mice were sacrificed and spleens were removed. Splenocytes were separated and tested for NK activity using the ^51Cr assay as described above.

NK cells = assay: NK activity (51Cr assay) of splenocytes from B-16 melanoma bearing mice treated orally; format: in vivo, C57B1/6J mice; conditions: for NK activity of splenocytes versus vehicle control group: 15 days, B-16 melanoma inoculated mice, FIG. 3
Protocol: In a further study C57B1/6J mice were used as the model mice which will develop metastatic lung foci after 15 days. The C57B1/6J mice were inoculated intravenously with B-16 melanoma cells (2.5×10^5) and treated daily orally with 6 or 9 μg/kg body weight of Cl-IB-MECA (starting one day after tumor inoculation). After 15 days, the mice were sacrificed and spleens were removed.
Splenocytes were separated and tested for NK activity using the ^51Cr assay as described above. […] The splenocytes derived from the group treated with 6 μg/kg body weight of Cl-IB-MECA were designated as “activated” cells and those derived from the control group were designated as “non-activated” splenocytes.

B-16 melanoma cells = assay: Adoptive transfer of splenocytes to melanoma bearing mice, count of lung melanoma foci; format: in vivo; conditions: splenocytes from 6 μg/kg Cl-IB-MECA treated mice engrafted 4 days after B-16 inoculation; day 15; versus non-activated splenocytes or control; FIG. 4
Description: In another experiment, the capability of the “activated” splenocytes to act in vivo against melanoma cells was examined. The “non-activated” and “activated” splenocytes were engrafted to mice that were inoculated 4 days earlier with B-16 melanoma cells (2.5×10^5). As the control served mice that were inoculated with the B-16 melanoma cells however not engrafted with splenocytes. The mice were sacrificed on day 15 and their lungs were removed. The number of lung melanoma foci was counted, the results for which are depicted in FIG. 4.

| Compound | activity of natural killer cells following preincubation [1] | activity of natural killer cells following preincubation ([1]; listed as CI-IB-MECA) | NK activity of splenocytes derived from treated mice (murine NK cells; after 4 days) | NK activity of splenocytes derived from treated mice (murine NK cells; after 11 days) | NK activity of splenocytes derived from treated mice (murine NK cells; following 18 days) | time of maximal activation of murine NK cells (murine NK cells; oral administration) | NK activity of splenocytes versus vehicle control group (NK cells; 6 μg/kg daily orally) | NK activity of splenocytes versus vehicle control group (NK cells; 9 μg/kg daily orally) | NK cell activity in splenocytes derived from treated melanoma bearing mice (NK cells; FIG. 3 legend, dose not stated there) | development of lung metastatic foci (B-16 melanoma cells) | effect of the A3 receptor antagonist on the stimulatory effect of Cl-IB-MECA on NK activity ([1]; MRS-1220 introduced with Cl-IB-MECA, FIG. 1) |
| --- | --- | --- | --- | --- | --- | --- | --- | --- | --- | --- | --- |
| CNC(=O)[C@H]1O[C@@H](n2cnc3c(NCc4cccc(I)c4)nc(Cl)nc32)[C@H](O)[C@@H]1O [Cl-IB-MECA, 2-chloro-N^6-(3-iodobenzyl)-adenosine-5′-N-methyl-uronamide] | potentiation | significant dose dependent increase | marked increase | high activity was still observed | only slight increase | 4 days | marked increase | marked increase | increased NK cell activity | decreased number of lung foci | – |
| O=C(Cc1ccccc1)Nc1nc2ccc(Cl)cc2c2nc(-c3ccco3)nn12 [MRS-1220, 9-chloro-2-(2-furanyl)-5-[(phenylacetyl)amino] [1,2,4,] -triazolo[1,5-c] quinazoline] | – | – | – | – | – | – | – | – | – | – | reversed the stimulatory effect; also recorded: abolished the stimulatory effect |
